Assay results from patent publication US20100247461A1, “ANTI-INFLAMMATORY COMPLEXES” (Signum Biosciences, Inc., priority 2009, published 2010).
Where two headings read alike, the source gives them in different places.

Experiments:
[1] = system: TPA-treated mouse ears (edema, ear thickness); test: TPA mouse ear model of inflammation - edema inhibition; format: in vivo
Description: In brief, mice were sedated and their ears were treated with 1.2 μg/20 uL TPA (i.e., tetradecanoylphorbol-13-acetate). After 5 minutes, we dosed these TPA-treated ears with a single 8 μg/20 μL dose, a 2 μg/20 μL dose, or both doses, of provided complexes. After 24 hours, the mice were sacrificed and edema was measured by taking micrometer readings of each ear. […] These values were corrected for the thickness of normal, non TPA-treated mouse ears of littermate controls.

[2] = system: TPA-treated mouse ears (edema, ear thickness); test: as above; format: in vivo; details: topical, 24 hours
[3] = system: Propionibacterium acnes (strain ATCC 6919); test: Inhibition of Propionibacterium acnes growth; format: cell-based
Description: The assay for the inhibition of growth of Propionibacterium acnes bacteria is described elsewhere (Nakatsuji et al., J Invest Dermatol, 2009, 129: 2480-2488). In brief, the strain ATCC 6919 of P. acnes (American Type Culture Collection, Manassas, Va.) was cultured on Brucella agar (R01254, Remel, Lenexa, Kans.) supplemented with 5% (v/v) defibrinated sheep blood, vitamin K (5 mg/ml, Remel, Lenexa, Kans.), and hemin (50 mg/ml, Remel, Lenexa, Kans.), under an anaerobic condition using Gas-Pak (BD, Sparks, Md.) at 37° C. A single colony was inoculated in Reinforced Clostridium Medium (Oxford, Hampshire, England) and cultured at 37° C. under the anaerobic condition. Each of the inventive complexes—AFC-Sr, AFC-Ag and AFC-Zn as well as AFC were dissolved in 100% (v/v) DMSO. Samples of each inventive complex, AFC and a solution of benzoyl peroxide (“BPO”) were then each incubated with an inoculum of P. acnes at a concentration of 1×10^6 CFU per mL in Reinforced Clostridium Medium in a 96-well microplate (100 μL per well) under anaerobic conditions for 72 hours. Samples of each were tested at final concentrations per well of 0.25 μg/mL, 0.5 μg/mL, 1.0 μg/mL, 1.95 μg/mL, 3.9 μg/mL, 7.8 μg/mL, 15.625 μg/mL, 31.25 μg/mL, 62.5 μg/mL, 125 μg/mL, 250μg/mL, and 500 μg/mL. A control well received only 5% (v /v) of DMSO in place of a sample of an inventive complex. After 72 hours incubation under anaerobic conditions, the P. acnes cultures in the 96-well microplate were mixed well and then absorbance readings at 600 nm were taken to determine bacterial growth. […] Growth curves of P. acnes determined for BPO, AFC, AFC-Sr, AFC-Ag and AFC-Zn are depicted in FIG. 3.

[4] = system: MPO activity (neutrophil infiltration) in P. acnes-injected ear; test: P. acnes-induced mouse ear model of inflammation - MPO endpoint; format: in vivo; details: dose of 0.4 mg/20 μL
Description: The methods for a model of P. acnes-inflammation are described elsewhere (Nakatsuji et al., J Invest Dermatol, 2008, 128: 2451-2457).
The protocol for inducing inflammation using P. acnes bacterial challenge on the mouse ear was slightly modified from the method described previously (Natatsuji et al., 2008). Briefly, Swiss Webster (ICR, 6-8 weeks old) mouse ears were injected with living P. acnes culture intradermally. An amount of 20 μl aliquots of living P. acnes (ATCC 6919, 3×10^6 CFU) suspended in PBS was intradermally injected in the central portion of the ear. As a control, 20 μl of PBS was injected into control animals.
To assay for inhibition of dermal neutrophil infiltration by AFC complexes, a standard method was used (see Bradley et al., J Invest Dermatol, 1982,78: 206-209; Young et al., J Invest Dermatol, 1983, 80: 48-52; De Young et al, Agents Actions, 1989, 26: 335-41; and Rao et al., Inflammation, 1993, 17: 723-41). Briefly, 6mm biopsy punches taken from both compound-treated ears as well as non-treated control ears were homogenized in 400 μl of 0.5% hexadecyltrimethylammonium bromide in 50 mM potassium phosphate buffer (pH 6.0) using the Fast Prep 24 (MP Biomedicals, Solon, Ohio). Supernatants were assayed for MPO activity using a model EL 340 96-well plate reader (BioTek Instruments, Winooski, Vt.). The percent inhibition of neutrophil infiltration by each AFC complex was determined by comparing the average MPO levels in the presence and absence of these compounds. The percent inhibition of MPO was determined by taking the average MPO activity of compound-treated ears and dividing it by the average MPO activity of 12 ears that only received the P. acnes challenge and subtracting that value from 100%. These values were corrected for the MPO activity of normal, non P. acnes-treated mouse ears of littermate controls. Summary of MPO activity ranges determined from an MPO activity assay for dexamethasone (administered at a dose of 1.6 mg/20 μL), clobetasol (administered at a dose of 0.1 mg/20 μL), salicylic acid (administered at a dose of 0.4 mg/20 μL), AFC (administered at a dose of 0.4 mg/20 μL), AFC-Strontium complex (administered at a dose of 0.4 mg/20 μL) and SFC-disodium are presented in Table 4. “+” indicates a range of 0-20%, “++” indicates a range of 20-40%, and “+++” indicates >40% inhibition.

neutrophils = test: Inhibition of oxidative burst from neutrophils (fMLP-induced superoxide release); format: cell-based; details: reduction of superoxide formation, fMLP 0.2 μM, 0 to 100 μM compound; read-out: ED50 Respiratory Burst
Description: During inflammation, neutrophils produce and release superoxide ions, otherwise known as oxidative burst response, causing cytotoxicity. […] The superoxide release assay is based on published protocols (Goldstein et al. (1975). J. Clin. Invest. 56(5): 1155-63). Briefly, cells were pre-incubated for 10 min at 37° C. with a mixture of cytochrome c (75 μM final concentration), cytochalasin B (5 μg/ml) with or without superoxide dismutase (SOD) (10 μg/ml) and with or without AFC, AFC-Calcium complex, and AFC-Strontium complex (ranging from 0 to 100 μM). To initiate O2^− release, fMLP (0.2 μM) was added the cells are incubated for 10 min at 37° C. Samples were then placed on ice for 5 min and subsequently centrifuged at 3,000 rpm at 4° C. The supernatant was then analyzed by spectrophotometric measurement at 550 and 556.5 nm. The ED50 values for the reduction of superoxide formation, obtained with AFC, AFC-Calcium complex, and AFC-Strontium complex are depicted in Table 2.

[5] = system: MPO (myeloperoxidase), neutrophil marker; test: TPA mouse ear model of inflammation - MPO inhibition (dermal neutrophil infiltration); format: in vivo
Description: Briefly, we homogenized 6mm biopsy punches taken from both compound-treated ears as well as TPA-treated and non-treated control groups. We quantitated the levels of MPO by a colorimetric reaction that was measured spectrophotometrically. The percent inhibition of neutrophil infiltration by each complex was determined by comparing the average MPO levels in the presence and absence of these compounds. The calculation for percent inhibition of MPO was determined similar to that as described for calculating the percent edema inhibition, see the Edema Inhibition protocol, supra.

[6] = system: TPA-treated mouse ears (erythema, Δa* redness); test: TPA mouse ear model of inflammation - erythema inhibition; format: in vivo; details: topical, 24 hours
Description: The protocol for measuring erythema inhibition by provided complexes was developed in-house by utilizing the CR-400 chroma meter from Konica Minolta (2). This instrument was used to measure the Δa*redness value from 6 mm biopsy punches taken 24 hours post TPA/compound treatment as described in the edema inhibition section above. […] These values were corrected for the Δa* value of non TPA-treated mouse ears of littermate controls.

[7] = complex and its solutions; compared with ordinary silver salts of carboxylic acids

| SMILES | ED50 for edema inhibition ([1]; TPA-treated mouse ear, topical) [µM] | decrease of edema compared with another complex or AFC alone ([1]; mouse ear inflammation assay) | % Edema Inhibition in the Mouse Ear Inflammation Assay (4% concentration) [2] | IC50 (inhibition of P. acnes growth) ([3]; 72 hours, anaerobic, absorbance 600 nm, 1×10^6 CFU per mL) [µg/mL] | MPO % Inhibition [4] | EC50 (neutrophils) [µM] | ED50 in the MPO assay ([5]; TPA-treated mouse ear, several concentrations, inhibitory activity curves) [μg/ear] | ED50 value for inhibiting neutrophil infiltration ([5]; TPA-treated mouse ear, topical) [µM] | % MPO Inhibition in the Mouse Ear Inflammation Assay (4% concentration) ([5]; TPA-treated mouse ear, topical, 4% concentration, 24 hours) | MPO inhibition compared with another complex or AFC alone ([5]; mouse ear inflammation assay) | fold lower ED50 value for inhibiting neutrophil infiltration than the AFC oil ([5]; versus AFC oil) [fold] | % Erythema Inhibition in the Mouse Ear Inflammation Assay (4% concentration) [6] | IC50 (inhibition of P. acnes growth) [3] [µg/mL] | light and air stability [7] |
| --- | --- | --- | --- | --- | --- | --- | --- | --- | --- | --- | --- | --- | --- | --- |
| CC(=O)N[C@@H](CSC/C=C(\C)CC/C=C(\C)CCC=C(C)C)C(=O)O [AFC-strontium complex, Strontium (R)-2-acetamido-3-((2E,6E)-3,7,11-trimethyldodeca-2,6,10-trienylthio)propanoate] | 21700 | more effective at decreasing edema than the calcium complex | +++ (“+++” indicates >50% inhibition of edema) | 12.6 | +++ (“+++” indicates >40% inhibition) | 35.6 | 315 | 5020 | +++ (“+++” indicates >80% inhibition of MPO) | improved MPO inhibition than the calcium complex | ~8 | +++ (“+++” indicates >40% inhibition of erythema) | – | – |
| CC(=O)N[C@@H](CSC/C=C(\C)CC/C=C(\C)CCC=C(C)C)C(=O)[O-].[Ag+] [AFC-Silver complex, Silver (R)-2-acetamido-3-((2E,6E)-3,7,11-trimethyldodeca-2,6,10-trienylthio)propanoate] | – | – | – | – | – | – | – | – | – | – | – | – | 16.9 | enhanced light and air stability |
